Measured values taken from patent US11612573B2, “Topical pharmaceutical compositions” (Dermavant Sciences GmbH, priority 2015, dated 2023).
Marks after values point to notes of the source that are not given here.

What was measured:
[1] = Dermal 4% cream, BID, Minipig, 13 weeks
[2] = Gao et al., Journal of Polymer Research 2011; cited from earlier work
[3] = solubility of the active ingredient in solvents; assay type: physicochemical
Method: The solubility of the active ingredient in different solvents was determined. […] The following formulations were prepared with 5%, 10%, 15% and 20% MCT (Formulations 15-18). Two formulations (Formulations 19 and 20) were also prepared where Polawax (a proprietary blend of cetostearyl alcohol and emulsifiers) was replaced with cetostearyl alcohol and additional emulsifier.

in vivo [4] = settings: rat, sc, 3 mg/kg/day
AhR pathway = settings: intestinal human colon adenocarcinoma
in vivo [5] = settings: minipig, topical or ocular, 4 % cream, BID
[6] = 28 day twice daily topical administration, toxicokinetics, dermal irritancy and toxicity; assay type: in vivo, Gottingen minipigs; settings: for concentration at 29 day: Skin Concentration
Method: Following dose application on each dosing day, the dose sites were semi-occluded for approximately 20±1 hours from the first dose and then gently washed before the next dose was applied.

CC(C)c1c(O)cc(/C=C/c2ccccc2)cc1O [3,5-Dihydroxy-4-isopropyl-trans-stilbene]
Cmax NOAEL [1]: 7.13* ng/mL
sensitivity to oxidation and photo degradation [2]: sensitive to oxidation and photo degradation
solubility in medium chain triglycerides (MCT) [3]: good solubility
solubility in water [3]: not soluble
Cmax (in vivo [4]): 31.6 ng/mL
activity on the AhR pathway (AhR pathway): activator
AUC at 13 weeks (in vivo [5]): 99 ng·h/mL
Cmax (in vivo [5]): 7.13 ng/mL
survival to scheduled necropsy ([6]; 28 days): All animals survived
Tmax ([6]; both sexes, Gottingen, minipig, in vivo, 60 mg/kg/day): 1 to 3 h
NOAEL at 28 days ([6]; both sexes, Gottingen, minipig, in vivo, topical or ocular, highest dose tested, 28 days, read-out: NOAEL for dermal irritation or systemic toxicity): 60 mg/kg/day
concentration at 29 day ([6]; female, Gottingen, minipig, 10 mg/kg/day, Epidermis/Upper Dermis): 2540 ng/g
concentration at 29 day ([6]; female, Gottingen, minipig, 20 mg/kg/day, Epidermis/Upper Dermis): 2270 ng/g
concentration at 29 day ([6]; female, Gottingen, minipig, 20 mg/kg/day, Lower Dermis): 305 ng/g
concentration at 29 day ([6]; female, Gottingen, minipig, 60 mg/kg/day, Epidermis/Upper Dermis): 6530 ng/g
concentration at 29 day ([6]; female, Gottingen, minipig, 60 mg/kg/day, Lower Dermis): 3040 ng/g
AUC(0-t) ([6]; female, Gottingen, minipig, in vivo, topical or ocular, 60 mg/kg/day): 4.84 ng·h/mL
concentration at 29 day ([6]; male, Gottingen, minipig, 10 mg/kg/day, Epidermis/Upper Dermis): 4830 ng/g
concentration at 29 day ([6]; male, Gottingen, minipig, 10 mg/kg/day, Lower Dermis): 166 ng/g
concentration at 29 day ([6]; male, Gottingen, minipig, 20 mg/kg/day, Epidermis/Upper Dermis): 3950 ng/g
concentration at 29 day ([6]; male, Gottingen, minipig, 20 mg/kg/day, Lower Dermis): 615 ng/g
concentration at 29 day ([6]; male, Gottingen, minipig, 60 mg/kg/day, Epidermis/Upper Dermis): 10000 ng/g
concentration at 29 day ([6]; male, Gottingen, minipig, 60 mg/kg/day, Lower Dermis): 3660 ng/g
dermal irritation at the dose site ([6]; minipig, in vivo, 60 mg/kg/day): no test article-related dermal irritation
